Source: ChEMBL document CHEMBL1649371, “Isoxazolidinyl polycyclic aromatic hydrocarbons as DNA-intercalating antitumor agents” (Eur J Med Chem, 2011)
The source made the active and inactive calls. No cut-off for these calls is given here. Numbered stars: 1 amine (or outer) side, 2 acyl side, 3 side chain; on linkers, the order of the positions; unused ones are H or OH. Bridge positions count the residues as written; N and C are the ends. Square brackets hold non-standard residues; d marks the D form. Peptide text beside a SMILES is read from it. I, II: the chains in the order shown. Actinocin(1to9) = Cc1c2oc3c(C)ccc(C(=O)[*:2])c3nc-2c(C(=O)[*:1])c(N)c1=O; NMeV = CN[C@H](C(=O)O)C(C)C; Sar = CNCC(=O)O

Key:
Vero = test: Cytotoxicity against african green monkey Vero cells after 20 hrs by MTS assay; assay type: cell-based; conditions: Chlorocebus sabaeus
U-937 = test: Cytotoxicity against human U937 cells after 20 hrs by MTS assay; assay type: functional, cell-based; conditions: U-937, 20 h
THP-1 = test: Cytotoxicity against human THP1 cells after 20 hrs by MTS assay; assay type: functional, cell-based; conditions: THP-1, 20 h
A549 [1] = test: Cytotoxicity against human A549 cells by SRB assay; assay type: functional, cell-based
MOLT-3 = test: Cytotoxicity against human MOLT3 cells after 20 hrs by MTS assay; assay type: functional, cell-based; conditions: MOLT-3, 20 h
HeLa = test: Cytotoxicity against human HeLa cells after 20 hrs by MTS assay; assay type: functional, cell-based
Calf thymus DNA = test: Binding affinity to calf thymus DNA by UV spectral analysis; assay type: nucleic-acid assay; conditions: Bos taurus
A549 [2] = test: Cytotoxicity against human A549 cells assessed as decrease of viable cells at 0.5 ug/ml after 8 hrs relative to control; assay type: functional
Nucleic Acid = test: Binding affinity to Escherichia coli phiX174 RF1 DNA assessed as DNA unwinding in presence of topoisomerase 1 after 30 mins by electrophoresis; assay type: nucleic-acid assay

SMILES: CN1O[C@H]2C(=O)NC(=O)[C@H]2[C@@H]1c1ccc2ccc3cccc4ccc1c2c34 (racemic)
- IC50 (Vero): 150 µM
- IC50 (U-937): 130 µM
- IC50 (THP-1): 102 µM
- IC50 (A549 [1]): 83 µM
- IC50 (MOLT-3): 95 µM
- IC50 (HeLa): 135 µM

SMILES: CN1O[C@H](CO)C[C@@H]1c1ccc2ccc3cccc4ccc1c2c34
- Kb (Calf thymus DNA): 6.8 ×10³ /M

SMILES: NC[C@@H]1C[C@H](c2cc3ccccc3c3ccccc23)N(Cc2ccccc2)O1 (racemic)
- IC50 (Vero): 132 µM
- IC50 (U-937): 154 µM
- IC50 (THP-1): 55 µM
- IC50 (A549 [1]): 32 µM
- IC50 (MOLT-3): 43 µM
- IC50 (HeLa): 50 µM

SMILES: CN1O[C@@H](CN)C[C@@H]1c1ccc2ccc3cccc4ccc1c2c34 (racemic)
- IC50 (Vero): 110 µM
- IC50 (U-937): 80 µM
- IC50 (THP-1): 18 µM
- IC50 (A549 [1]): 11 µM
- IC50 (MOLT-3): 17 µM
- IC50 (HeLa): 15 µM

SMILES: Cc1c2oc3c(C)ccc(C(=O)N[C@@H]4C(=O)N[C@H](C(C)C)C(=O)N5CCC[C@H]5C(=O)N(C)CC(=O)N(C)[C@@H](C(C)C)C(=O)O[C@@H]4C)c3nc-2c(C(=O)N[C@@H]2C(=O)N[C@H](C(C)C)C(=O)N3CCC[C@H]3C(=O)N(C)CC(=O)N(C)[C@@H](C(C)C)C(=O)O[C@@H]2C)c(N)c1=O [DACTINOMYCIN] (I: T[dV]P[Sar][NMeV] / II: T[dV]P[Sar][NMeV]; ester I:1-I:C, II:1-II:C; linker I:N-II:N via Actinocin(1to9))
- IC50 (MOLT-3): ≤ 1 µM
- Activity (A549 [2]): 40%

SMILES: CN1O[C@H](CN)C[C@@H]1c1ccc2ccc3cccc4ccc1c2c34 (racemic)
- IC50 (Vero): 102 µM
- Activity (Nucleic Acid): Active
- IC50 (U-937): 88 µM
- IC50 (THP-1): 19 µM
- Kb (Calf thymus DNA): 9.6 ×10⁴ /M
- IC50 (A549 [1]): 9 µM
- IC50 (MOLT-3): 12 µM
- IC50 (HeLa): 15 µM

SMILES: NC[C@H]1C[C@H](c2cc3ccccc3c3ccccc23)N(Cc2ccccc2)O1 (racemic)
- IC50 (Vero): 140 µM
- IC50 (U-937): 112 µM
- IC50 (THP-1): 61 µM
- IC50 (A549 [1]): 35 µM
- IC50 (MOLT-3): 50 µM
- IC50 (HeLa): 45 µM

SMILES: CN1O[C@@H]2C(=O)NC(=O)[C@@H]2[C@@H]1c1ccc2ccc3cccc4ccc1c2c34 (racemic)
- IC50 (Vero): > 500 µM
- IC50 (U-937): > 500 µM
- IC50 (THP-1): 399 µM
- IC50 (A549 [1]): 328 µM
- IC50 (MOLT-3): 415 µM
- IC50 (HeLa): 284 µM
